The target in one experiment is SlSCPx-2 F89A (Spodoptera litura, UniProt D1GJ60, F479A). Nature of the experiment: biochemical. It is filed as binding. On the procedure:
(§1) Binding of the fluorescent probe 1, 8-ANS to SlSCPx-2 can be competed with physiological ligands. SlSCPx-2 at 15 µM was incubated with 1, 8-ANS at 15 µM in the reaction buffer (pH 7.0) at room temperature for 2.5 min. […] […] To calculate binding activity of the ligands and the protein, the fluorescence intensity of the controls were subtracted from the total fluorescence intensity of the 1, 8-ANS-protein complex in the presence of ligands tested. Each ligand replacement assay was repeated for three times.
(§2) Various mutations in His-tagged SlSCPx-2 were constructed by using the Stratagene QuickChange Site-Directed Mutagenesis Kit (TAKARA, Dalian, China). Recombined plasmid containing SlSCPx-2 fused with the His-Tag sequence in a pPROEXTM HTa vector was used as a template. Two complementary primer pairs containing the desired mutations were used to construct each gene mutant. All mutant sequences were confirmed by DNA sequencing. The binding affinity of the mutants with the various ligands was examined using the fluorescence displacement assay as described above.

For the next experiment, the target named is SlSCPx-2 F110W (Spodoptera litura, UniProt D1GJ60, F500W). Nature of the experiment: biochemical. The format is binding. The protocol:
as §1, §2

Another experiment has as its target SlSCPx-2 W66E (Spodoptera litura, UniProt D1GJ60, W456E). As to the kind of experiment: biochemical. It is filed as binding. The protocol:
as §1, §2

A further experiment deals with SlSCPx-2 I115M (Spodoptera litura, UniProt D1GJ60, I505M). As to the kind of experiment: biochemical. It is filed as binding. The protocol: as §1, §2
The target in the next experiment is SlSCPx-2 F53W (Spodoptera litura, UniProt D1GJ60, F443W). As to the kind of experiment: biochemical. The format is binding. The protocol: as §1, §2
Another experiment deals with SlSCPx-2 F53A (Spodoptera litura, UniProt D1GJ60, F443A). Nature of the experiment: biochemical. The format is binding. On the procedure:
as §1, §2

The target of the next experiment is SlSCPx-2 Q131A (Spodoptera litura, UniProt D1GJ60, Q521A). Nature of the experiment: biochemical. The format is binding. On the procedure:
as §1, §2

A further experiment concerns the target SlSCPx-2 (Spodoptera litura, UniProt D1GJ60). As to the kind of experiment: 1,8-ANS fluorescence displacement (competitive binding) assay, wild type rSlSCPx-2. The conditions noted are these: for RBAchol / RBApal: IC50 of wild type for the same ligand (=100%). On the procedure: Binding of the fluorescent probe 1, 8-ANS to sterol carrier protein (SlSCPx-2) is measured by relative increase in fluorescent intensity. Steady-state fluorescence spectra were measured on a Cary Eclipse fluorescence spectrophotometer (Varian, Mulgrave, Australia) using a 1-cm path length cuvette. The binding was monitored by measuring the fluorescence signal between 400 and 600 nm following excitation at 350 nm. Slit widths were set to 5 and 10 nm for the excitation and emission monochromators, respectively. […] All measurements were performed at room temperature and the samples were equilibrated for 5 min prior to measurement. At each of the given concentrations, at least three replicates were performed.
(§3) After the incubation, each potential ligand at a serial of concentration (0–100 µM) was added into the 1, 8-ANS-protein mixture for another 2.5 min and the fluorescence intensity of the 1,8-ANS-protein complex was measured as previously described. The control was the reaction of ANS probe and a series of concentration (0–100 µM) of ligands without the protein. To calculate binding activity of the ligands and the protein, the fluorescence intensity of the controls were subtracted from the total fluorescence intensity of the 1, 8-ANS-protein complex in the presence of ligands tested. Each ligand replacement assay was repeated for three times.

For another experiment, the target named is SlSCPx-2 F89W (Spodoptera litura, UniProt D1GJ60, F479W). As to the kind of experiment: biochemical. The format is binding. The protocol: as §3, with “Binding of the fluorescent probe 1, 8-ANS to SlSCPx-2 can be competed with physiological ligands. SlSCPx-2 at 15 µM was incubated with 1, 8-ANS at 15 µM in the reaction buffer (pH 7.0) at room temperature for 2.5 min. After” for “After”
as §2

A further experiment has as its target SlSCPx-2 T128A (Spodoptera litura, UniProt D1GJ60, T518A). As to the kind of experiment: biochemical. It is filed as binding. On the procedure:
as §3, with “Binding of the fluorescent probe 1, 8-ANS to SlSCPx-2 can be competed with physiological ligands. SlSCPx-2 at 15 µM was incubated with 1, 8-ANS at 15 µM in the reaction buffer (pH 7.0) at room temperature for 2.5 min. After” for “After”
as §2

A further experiment concerns the target SlSCPx-2 F110A (Spodoptera litura, UniProt D1GJ60, F500A). Nature of the experiment: biochemical. The format is binding. The protocol:
as §3, with “Binding of the fluorescent probe 1, 8-ANS to SlSCPx-2 can be competed with physiological ligands. SlSCPx-2 at 15 µM was incubated with 1, 8-ANS at 15 µM in the reaction buffer (pH 7.0) at room temperature for 2.5 min. After” for “After”
as §2

The next experiment has as its system S. litura larvae. Nature of the experiment: Diet bioassay for inhibition of growth of S. litura larvae. It is filed as in vivo, Spodoptera litura. Conditions: for inhibitory effect on the growth of S. litura larvae: newly hatched larvae, artificial diet with 3, 12 and 48 µg/g diet; for body weight of the treated larvae: 13 days post egg hatching, increasing concentrations 3, 12, 48 µg/g diet, compared to the control. The protocol:
Newly hatched S. litura larvae (30 larvae per treatment) were reared in artificial diet in presence of each chemical at different concentrations of 3, 12 and 48 µg/g diet. Control larvae were fed in the diet with diluted acetone (solvent for the chemical). Fresh diet was provided every other day. Larvae development was monitored until pupation. Larvae were weighted at 13 days post egg hatching when most of the larvae were at 5th instar stage.

A further experiment deals with A. aegypti. On the set-up: method as in PMID 15627652. The conditions noted are these: cited from earlier work.
The subject of the next experiment is H. armigera neonates. The conditions noted are these: cited from earlier work.
Where [1] appears, read: wild type, displacement of 15 µM 1,8-ANS from 15 µM SlSCPx-2, pH 7.0, read-out: IC50.
Where [2] appears, read: IC50 of cholesterol (=100%) divided by IC50 of each chemical.

The IC50 is the point on the concentration scale where inhibition reaches its midpoint.

Entries after “also recorded” stand apart in the source; their conditions may differ. Like-named read-outs stand apart in the source and are kept apart here.

Turning to `CC(C)CCC[C@@H](C)[C@H]1CC[C@H]2[C@@H]3CC=C4C[C@@H](O)CC[C@]4(C)[C@H]3CC[C@]12C` [Cholesterol, reference compound], the concentration for half-maximal inhibition (IC50) against SlSCPx-2 F89A turned out to be 1.743 ± 0.0013 mM; on SlSCPx-2 F110W, 231 ± 2.36 µM; on SlSCPx-2 W66E, 974 ± 10.7 µM; against SlSCPx-2 I115M, 0.0343 ± 0.00153 mM; on SlSCPx-2 F53W, 4.669 ± 0.0232 mM; against SlSCPx-2 F53A, 7.3 ± 0.28 mM. Moreover, the IC50 came out at 2.69 ± 0.0342 mM at SlSCPx-2 Q131A, 50.1 ± 0.8 µM on SlSCPx-2 (setting [1]), 5.58 ± 1.23 µM at SlSCPx-2 F89W and 20.8 ± 1.32 µM at SlSCPx-2 T128A. Also, the “RBAchol / RBApal” value on SlSCPx-2 (wild type) was 100%.

For the molecule `CCCCC/C=C\C/C=C\CCCCCCCC(=O)O` [Linoleic acid], the “RBA (relative binding affinity)” value on SlSCPx-2 was 35%. In addition, on SlSCPx-2 (setting [1]), the IC50 amounted to 143 ± 0.99 µM.

In the case of `CCCCCCCCCCCCCCCC(=O)O` [Palmitic acid], the concentration for half-maximal inhibition (IC50) at SlSCPx-2 F110W turned out to be 503.3 ± 2.7 µM; against SlSCPx-2 W66E, 67.3 ± 3.43 µM; against SlSCPx-2 I115M it was 6.617 ± 0.0382 mM; against SlSCPx-2 F53W it was 5.777 ± 0.028 mM; at SlSCPx-2 F53A, 0.0717 ± 0.00084 mM; against SlSCPx-2 Q131A, 0.3548 ± 0.00255 mM. The IC50 stood at 59.1 ± 1.29 µM on SlSCPx-2 (setting [1]), 41.7 ± 1.62 µM against SlSCPx-2 F110A, 77.5 ± 1.51 µM on SlSCPx-2 F89W and 32.8 ± 1.52 µM against SlSCPx-2 T128A. Moreover, the “RBA (relative binding affinity)” value at SlSCPx-2 is given as 85%. Besides, on SlSCPx-2 (wild type), the “RBAchol / RBApal” value was determined as 100%.

Consider `CCCCCCOC(=O)c1ccc(NC(=O)CCC)cc1` [AG-205/36813059], for which, in the experiment on S. litura larvae, the “inhibitory effect on the growth of S. litura larvae” value (“inhibitory effect on the growth” below) is listed as “inhibited the growth; also recorded: a certain degree of biological activity; also recorded: had inhibitory effect”. Further, the “RBA (relative binding affinity)” value at SlSCPx-2 is 210%. For the same molecule, the 50% inhibitory concentration (IC50) at SlSCPx-2 (setting [1]) was 23.9 ± 1.38 µM.

For the molecule `CC[C@H](/C=C/[C@@H](C)[C@H]1CC[C@H]2[C@@H]3CC=C4C[C@@H](O)CC[C@]4(C)[C@H]3CC[C@]12C)C(C)C` [Stigmasterol], on SlSCPx-2, the IC50 is 190 ± 2.29 µM and the “RBA (relative binding affinity)” value was 26%.

`C=CCc1cccc(/C=N/NC(=O)COc2ccccc2C)c1O` [AG-205/07775053]: the “inhibitory effect on the growth” value in the experiment on S. litura larvae is “inhibited the growth; also recorded: high inhibitory effect; also recorded: had inhibitory effect”. Further, the “RBA (relative binding affinity)” value at SlSCPx-2 is recorded as 0.6%. Also, the IC50 at SlSCPx-2 (setting [1]) was found to be 8630 ± 393 µM.

As to `COc1cccc(-n2sc3c(c2=S)-c2cc(Cl)ccc2NC3(C)C)c1` [AeSCPI-2, reference compound], the “mortality in A. aegypti” value in the experiment with A. aegypti is “caused death at larva-to-pupa transition period”. Also, the “RBA (relative binding affinity)” value on SlSCPx-2 is recorded as 91%. In addition, the concentration for half-maximal inhibition (IC50) on SlSCPx-2 (setting [1]) stood at 55 ± 0.66 µM.

As for `CC(=O)Nc1ccc(Nc2nc(-c3ccc(Cl)c(Cl)c3)cs2)cc1` [AeSCPI-1, reference compound], the “lethality to H. armigera neonates” value with H. armigera neonates is listed as “lethal”. Also, the “time to kill the larvae post the treatment” value in the experiment with A. aegypti (A. aegypti larvae) is on record as at most 3 days. Also, on SlSCPx-2, the “RBA (relative binding affinity)” value worked out at 31%. Further, the IC50 on SlSCPx-2 (setting [1]) came to 161 ± 5.03 µM.

`CCCCCCCC(=O)O` [Octanoate, reference compound]: at SlSCPx-2 (setting [2]), the “RBA (relative binding affinity)” value came to 23%. For the same molecule, the IC50 at SlSCPx-2 (setting [1]) came out at 217.9 ± 1.53 µM.

`CCCCCCCC/C=C\CCCCCCCC(=O)O` [Oleic acid]: on SlSCPx-2, the concentration for half-maximal inhibition (IC50) was determined as 24.4 ± 1.14 µM and the “RBA (relative binding affinity)” value came to 206%.

With `CCCCCCCCCCCCCCCCCC(=O)O` [Stearic acid], the “RBA (relative binding affinity)” value on SlSCPx-2 was 126%. The IC50 at SlSCPx-2 (setting [1]) came to 39.8 ± 1.17 µM.

In the case of `CCc1ccc(C(=O)/C=C/Nc2ccc(NC(C)=O)cc2)cc1` [AH-487/41731687], in the experiment with S. litura larvae, the “body weight of the treated larvae” value was “decreased, significantly” and the “inhibitory effect on the growth” value is “inhibited the growth; also recorded: had inhibitory effect”. On SlSCPx-2, the “RBA (relative binding affinity)” value is on record as 1166%. For the same molecule, the concentration for half-maximal inhibition (IC50) on SlSCPx-2 (setting [1]) was 4.3 ± 0.63 µM.

Take `CC(C)[C@@H](C)/C=C/[C@@H](C)[C@H]1CC[C@H]2C3=CC=C4C[C@@H](O)CC[C@]4(C)[C@H]3CC[C@]12C` [Ergosterol]: at SlSCPx-2, the concentration for half-maximal inhibition (IC50) came out at 167.6 ± 0.34 µM and the “RBA (relative binding affinity)” value stood at 30%.

On to `Cc1cc(OCCCCc2c(C)n[nH]c2C)ccc1Cl` [AG-664/14117324], for which, in the experiment on S. litura larvae, the “body weight of the treated larvae” value is on record as “decreased, significantly” and the “inhibitory effect on the growth” value is “inhibited the growth; also recorded: had inhibitory effect”. Moreover, on SlSCPx-2, the “RBA (relative binding affinity)” value turned out to be 1943%. In addition, the IC50 at SlSCPx-2 (setting [1]) turned out to be 2.58 ± 0.2 µM.

At SlSCPx-2, `CCCCC/C=C\C/C=C\C/C=C\C/C=C\CCCC(=O)O` [Arachidonate, arachidonic acid] registered an IC50 of 18.1 ± 0.83 µM. The “RBA (relative binding affinity)” value on SlSCPx-2 (setting [2]) is recorded as 277%.

The values above are taken from publication PMC3893073, “Structural and Functional Analyses of a Sterol Carrier Protein in Spodoptera litura” (PLoS ONE, 2014).
